Experimental data from patent US20110003777A1, “Methods of Treatment Employing Prolonged Continuous Infusion of Belinostat” (TOPOTARGET A/S, priority 2008, published 2011).

Experiments:
[1] = water at physiological pH; cited from earlier work
[2] = system: NYH: human small cell lung cancer; assay: Clonogenic assay with increasing time of exposure, NYH; format: cell-based
Description: (§1) The data are summarised in FIG. 1, which is a graph of EC50 (μM), as determined using the clonogenic assay described above, as a function of exposure time (hours) for the four cells lines, P388 (diamonds), A2780 (circles), NYH (triangles), and L1210 (squares).

[3] = system: P388: mouse lymphocytic leukemia; assay: Clonogenic assay with increasing time of exposure, P388; format: cell-based
Description: as §1

[4] = system: A2780: human ovarian cancer; assay: Clonogenic assay with increasing time of exposure, A2780; format: cell-based
Description: as §1

[5] = system: L1210: mouse lymphocytic leukemia; assay: Clonogenic assay with increasing time of exposure, L1210; format: cell-based
Description: as §1

[6] = reported; cited from earlier work
[7] = system: human patient with AML (acute myeloid leukemia); assay: Continuous intravenous infusion in a human subject with AML; format: in vivo; details: for Blasts (absolute) / WBC / Platelets: peripheral blood
Description: The patient was a person with AML (acute myeloid leukemia). The patient had arterial hypertension since 1986, hypothyroidism since 1997 (treated with levothyroxin), anorexia, an enlarged spleen, night sweats since 2007, allergic exanthema since January 2008, and conjunctival hemorrhage from February 2007. AML was first diagnosed in December 2006. Prior treatment included four courses of decitabine from July 2007 to November 2007.

patients = details: 30 minute intravenous bolus with standard dose carboplatin or paclitaxel (Sinha et al., 2007); cited from earlier work
[8] = system: patients with various solid-tumours; details: intravenous bolus over 30 minutes, 150 to 1200 mg/m^2, solid tumours (Steele et al., 2008); cited from earlier work
[9] = Day 15, before starting the 2nd cycle

## O=C(/C=C/c1cccc(S(=O)(=O)Nc2ccccc2)c1)NO [Belinostat™, (E)-N-hydroxy-3-(3-phenylsulfamoyl-phenyl)-acrylamide]
[1]
  solubility in water: sparingly soluble
[2]; longer incubation (≧16 hours)
  EC50 values: markedly reduced
[2]; short incubation times
  activity in clonogenic assay: weak activity
[3]; P388, longer incubation (≧16 hours)
  EC50 values: markedly reduced
[3]; P388, short incubation times
  activity in clonogenic assay: weak activity
[4]; A2780, longer incubation (≧16 hours)
  EC50 values: markedly reduced
[4]; A2780, short incubation times
  activity in clonogenic assay: weak activity
[5]; L1210, longer incubation (≧16 hours)
  EC50 values: markedly reduced
[5]; L1210, short incubation times
  activity in clonogenic assay: weak activity
[6]
  plasma half-life: 47 to 86 min
[7]; 800 mg/m^2/d continuous i.v. infusion, first cycle
  tolerability of first infusion: tolerated well
[7]; 800 mg/m^2/d, first cycle, planned 48 hours
  time of infusion at interruption due to fever (39° C.), dyspnea, and cough: 37 h
[7]; 800 mg/m^2/d, full 48 hour cycle on Day 15 and Day 16
  tolerability of second cycle: no reports of serious adverse events
[7]; after second 48 hour cycle
  Platelet counts following second cycle: moderately depressed
[7]; human, continuous infusion
  tolerability and efficacy of continuous infusion: feasible, well tolerated and efficacious
[7]; 24 h, pre-treatment 2.4
  Blasts (absolute): 5e+08 L⁻¹
[7]; 24 h, pre-treatment 3.8
  WBC: 1.3e+09 L⁻¹
[7]; 48 h, pre-treatment 2.4
  Blasts (absolute): 2e+08 L⁻¹
[7]; 48 h, pre-treatment 3.8
  WBC: 6e+08 L⁻¹
[7]; Day 5
  Blasts (absolute): 1.6e+09 L⁻¹
  Platelets: 8e+10 L⁻¹
  WBC: 2.8e+09 L⁻¹
[7]; Day 8
  Blasts (absolute): 2e+09 L⁻¹
  Platelets: 3.9e+10 L⁻¹
  WBC: 4.2e+09 L⁻¹
[7]; [9]
  Blasts (absolute): 1.03e+10 L⁻¹
  Platelets: 7.3e+10 L⁻¹
  WBC: 1.21e+10 L⁻¹
[7]; Day 19 (after 2nd cycle)
  Blasts (absolute): 3.8e+09 L⁻¹
  Platelets: 4.2e+10 L⁻¹
  WBC: 4.9e+09 L⁻¹
[7]; Day 22
  Blasts (absolute): 5.6e+09 L⁻¹
  Platelets: 3.3e+10 L⁻¹
  WBC: 7.4e+09 L⁻¹
[7]; Day 26
  Blasts (absolute): 1.26e+10 L⁻¹
  Platelets: 3.4e+10 L⁻¹
  WBC: 1.57e+10 L⁻¹
patients
  maximum tolerated dose: 1000 mg/m^2/d
[8]
  maximum tolerated dose: 1000 mg/m^2
